Active and inactive are the calls of the source. No cut-off for these calls is given here.
Test system: K562
Assay: Inhibition of Ras farnesylation in human K562 cells after 24 hrs by Western blot
Assay type: functional, cell-based

| SMILES | Activity |
| --- | --- |
| CC(C)=CCCC(C)=CCC(CC=C(C)CCC=C(C)C)(P(=O)(O)O)P(=O)(O)O | inactive |
| CC(C)=CCC/C(C)=C\CC(C/C=C(\C)CCC=C(C)C)(P(=O)(O)O)P(=O)(O)O | inactive |

Source: ChEMBL document CHEMBL1144668, “Mono- and dialkyl isoprenoid bisphosphonates as geranylgeranyl diphosphate synthase inhibitors” (Bioorg Med Chem, 2008)
